Experiments:
[1] = Stability of the compound in simulated intestinal fluid at pH 6.8 assessed as half life measured up to 24 hrs by RP-HPLC-UV analysis; type: ADME
[2] = Stability of the compound in simulated gastric fluid at pH 1.2 assessed as half life measured up to 24 hrs by RP-HPLC-UV analysis; type: ADME

CC[C@H](C)[C@@H]1NC(=O)[C@H](CCC(=O)O)NC(=O)[C@@H]2CCCN2C(=O)[C@H](Cc2cnc[nH]2)NC(=O)[C@H](CC(=O)O)NC(=O)[C@H](Cc2ccc(O)cc2)NC(=O)[C@H](CC(N)=O)NC(=O)[C@@H]2CSSC[C@H](NC(=O)CN)C(=O)N[C@@H](CSSC[C@@H](C(N)=O)NC1=O)C(=O)N[C@@H](CO)C(=O)N[C@@H](CC(=O)O)C(=O)N1CCC[C@H]1C(=O)N[C@@H](CCCNC(=N)N)C(=O)N2
half-life [1]: 2.4 h
half-life [2]: > 24 h

CC(C)C[C@@H]1NC(=O)CNC(=O)[C@H](CC(N)=O)NC(=O)[C@H](CCCNC(=N)N)NC(=O)[C@H]([C@@H](C)O)NC(=O)[C@@H]2CSSC[C@@H]3NC(=O)[C@H]([C@@H](C)O)NC(=O)CNC(=O)CNC(=O)[C@H](C(C)C)NC(=O)[C@@H]4CSSC[C@H](NC(=O)[C@H]([C@@H](C)O)NC(=O)[C@H](CSSC[C@H](NC(=O)[C@H](C(C)C)NC(=O)[C@@H]5CCCN5C1=O)C(=O)NCC(=O)N[C@@H](CCC(=O)O)C(=O)N[C@@H]([C@@H](C)O)C(=O)N4)NC(=O)CNC(=O)[C@@H]1CCCN1C(=O)[C@H]([C@@H](C)O)NC(=O)[C@H](CC(N)=O)NC3=O)C(=O)N[C@@H](CO)C(=O)N[C@@H](Cc1c[nH]c3ccccc13)C(=O)N1CCC[C@H]1C(=O)N[C@@H](C(C)C)C(=O)N2
half-life [1]: > 24 h
half-life [2]: > 24 h

CC(C)C[C@@H]1NC(=O)[C@H](CCC(=O)O)NC(=O)[C@@H](NC(=O)[C@H](CCC(=O)O)NC(=O)[C@H](CC(=O)O)NC(=O)[C@H](N)CC(N)=O)CSSC[C@@H]2NC(=O)[C@H](C)NC(=O)[C@H](C(C)C)NC(=O)[C@H](CC(N)=O)NC(=O)[C@H](C(C)C)NC(=O)[C@H](CSSC[C@@H](C(=O)N[C@H](CC(C)C)C(=O)O)NC(=O)CNC(=O)[C@H]([C@@H](C)O)NC2=O)NC1=O
half-life [1]: > 24 h
half-life [2]: > 24 h

CC[C@H](C)[C@@H]1NC(=O)[C@H](CCC(=O)O)NC(=O)[C@@H]2CCCN2C(=O)[C@H](Cc2c[nH]cn2)NC(=O)[C@H](CC(=O)O)NC(=O)[C@H](Cc2ccc(O)cc2)NC(=O)[C@H](CC(N)=O)NC(=O)[C@@H]2CSSC[C@@H]3NC(=O)CNC(=O)CNC(=O)CNC(=O)[C@H](C)NC(=O)[C@H](C)NC(=O)CNC(=O)CNC(=O)[C@@H](CSSC[C@H](NC3=O)C(=O)N[C@@H](CO)C(=O)N[C@@H](CC(=O)O)C(=O)N3CCC[C@H]3C(=O)N[C@@H](CCCNC(=N)N)C(=O)N2)NC1=O
half-life [1]: 1.5 h
half-life [2]: > 24 h

CC[C@H](C)[C@@H]1NC(=O)[C@@H]2CCCN2C(=O)[C@H](Cc2c[nH]c3ccccc23)NC(=O)[C@H](CO)NC(=O)[C@@H]2CSSC[C@@H]3NC(=O)[C@H]([C@@H](C)O)NC(=O)[C@H](CCC(=O)O)NC(=O)CNC(=O)[C@@H]4CSSC[C@H](NC(=O)CNC(=O)[C@H](CCC(N)=O)NC(=O)[C@H]([C@@H](C)O)NC(=O)[C@H](Cc5ccc(O)cc5)NC(=O)[C@H](CSSC[C@H](NC1=O)C(=O)N[C@@H](CCCCN)C(=O)N[C@@H](CCCNC(=N)N)C(=O)N[C@@H](CC(N)=O)C(=O)NCC(=O)N[C@@H](CC(C)C)C(=O)N1CCC[C@H]1C(=O)N[C@@H](C(C)C)C(=O)N4)NC(=O)[C@H]([C@@H](C)O)NC(=O)CNC(=O)[C@H](CC(C)C)NC(=O)[C@H]([C@@H](C)O)NC3=O)C(=O)N[C@@H]([C@@H](C)O)C(=O)N2
half-life [1]: > 24 h
half-life [2]: > 24 h

CC(C)C[C@H](NC(=O)[C@@H]1CSSC[C@@H]2NC(=O)[C@H](CC(C)C)NC(=O)[C@H](CCC(=O)O)NC(=O)[C@@H](NC(=O)[C@H](CCC(=O)O)NC(=O)[C@H](CC(=O)O)NC(=O)[C@@H](N)CC(N)=O)CSSC[C@H](NC(=O)[C@H](C)NC(=O)[C@H](C(C)C)NC(=O)[C@H](CC(N)=O)NC(=O)[C@H](C(C)C)NC2=O)C(=O)N[C@@H]([C@@H](C)O)C(=O)NCC(=O)N1)C(=O)O [PLECANATIDE]
half-life [2]: > 24 h

NC(=O)CC[C@@H]1NC(=O)[C@H](Cc2ccccc2)NC(=O)[C@H](Cc2ccc(O)cc2)NC(=O)[C@@H](N)CSSC[C@@H](C(=O)N2CCC[C@H]2C(=O)N[C@@H](CCCN=C(N)N)C(=O)NCC(N)=O)NC(=O)[C@H](CC(N)=O)NC1=O [VASOPRESSIN]
half-life [2]: > 24 h
